IC50 data for one molecule are collected here from ChEMBL document CHEMBL3639262, “Diazabenzo[de] anthracen-3-one compounds and methods for inhibiting PARP” (2013).

This assay has as its target Poly [ADP-ribose] polymerase 1 (Homo sapiens, UniProt P09874). Briefly: PARP Enzyme Assay: The PARP enzyme assay is set up on ice in a volume of 100 microliters consisting of 100 mM Tris-HCl (pH 8.0), 1 mM MgCl2, 28 mM KCl, 28 mM NaCl, 0.1 mg/ml of DNase I activated herring sperm DNA (Sigma, Mo.), 3.0 micromolar [3H]nicotinamide adenine dinucleotide (470 mci/mmole), 7 micrograms/ml PARP enzyme, and various concentrations of the compounds to be tested. The reaction is initiated by incubating the mixture at 25° C. After 15 minutes of incubation, the reaction is terminated by adding 500 microliters of ice cold 20% (w/v) trichloroacetic acid. The precipitate formed is transferred onto a glass fiber filter (Packard Unifilter-GF/B) and washed three times with ethanol. After the filter is dried, the radioactivity is determined by scintillation counting.

Sequence of Poly [ADP-ribose] polymerase 1 (P09874 whole entry): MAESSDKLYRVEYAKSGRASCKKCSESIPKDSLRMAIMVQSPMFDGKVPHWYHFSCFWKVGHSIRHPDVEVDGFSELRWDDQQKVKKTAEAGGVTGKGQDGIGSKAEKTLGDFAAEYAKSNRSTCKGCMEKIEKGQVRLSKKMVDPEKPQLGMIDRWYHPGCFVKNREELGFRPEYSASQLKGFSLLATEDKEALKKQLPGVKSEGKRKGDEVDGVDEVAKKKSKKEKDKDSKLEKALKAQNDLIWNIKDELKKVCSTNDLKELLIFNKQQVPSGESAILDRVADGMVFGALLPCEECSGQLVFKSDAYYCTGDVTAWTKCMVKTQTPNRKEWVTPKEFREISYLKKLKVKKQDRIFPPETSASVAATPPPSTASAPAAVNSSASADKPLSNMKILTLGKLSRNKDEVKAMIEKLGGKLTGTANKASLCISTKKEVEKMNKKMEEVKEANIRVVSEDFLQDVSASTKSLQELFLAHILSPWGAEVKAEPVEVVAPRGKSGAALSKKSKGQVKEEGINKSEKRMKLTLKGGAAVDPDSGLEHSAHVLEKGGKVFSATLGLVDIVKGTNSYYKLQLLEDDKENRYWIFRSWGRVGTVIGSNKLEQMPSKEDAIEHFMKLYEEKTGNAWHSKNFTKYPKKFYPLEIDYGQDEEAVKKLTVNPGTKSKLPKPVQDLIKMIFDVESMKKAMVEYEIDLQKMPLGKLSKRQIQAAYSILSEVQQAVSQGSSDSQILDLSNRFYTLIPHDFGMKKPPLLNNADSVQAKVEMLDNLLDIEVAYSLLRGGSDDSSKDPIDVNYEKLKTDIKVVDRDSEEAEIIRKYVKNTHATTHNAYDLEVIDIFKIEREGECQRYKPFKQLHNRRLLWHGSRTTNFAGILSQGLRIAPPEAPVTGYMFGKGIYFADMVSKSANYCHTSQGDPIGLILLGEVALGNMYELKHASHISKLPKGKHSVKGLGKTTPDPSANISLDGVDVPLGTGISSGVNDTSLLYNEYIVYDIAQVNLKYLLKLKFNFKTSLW

On to `CCN(CC)CCN(CC)Cc1ccc2c(c1)-c1n[nH]c(=O)c3cccc(c13)O2`, for which the IC50 (as a rule, the concentration that gives 50% inhibition) worked out at 500 nM.
